From PubChem BioAssay AID256 (DTP/NCI, 2004)
Several values for one entry are separate records, joined by “and”; a condition that tells them apart may be missing. Equal values may be shown once. Inconclusive results and toxic doses are left out. How the source made its calls: active means survival T/C of 150% or more; inactive means T/C below 125% in these data.

System: CD2F1 mice, L1210 leukemia ip, survival T/C
Assay: NCI In Vivo Anticancer Drug Screen. Data for tumor model L1210 Leukemia (intraperitoneal) in CD2F1 (CDF1) mice
Details: higher = longer survival
Method in brief: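 Read-out first: treated-group measurement over vehicle-control measurement, expressed as a ratio. Animals bore a transplanted tumor line and were dosed with compound or vehicle.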

[1] = endpoint: mean survival time, dose: 100.0 mg/kg/injection, schedule: Q04DX003 (ip), vehicle: saline with Tween-80
[2] = endpoint: mean survival time, dose: 200.0 mg/kg/injection, schedule: Q04DX003 (ip), vehicle: saline with Tween-80
[3] = endpoint: mean survival time, dose: 400.0 mg/kg/injection, schedule: Q04DX003 (ip), vehicle: saline with Tween-80
[4] = endpoint: mean survival time, dose: 100.0 mg/kg/injection, schedule: Q01DX009 (ip), vehicle: saline with Tween-80
[5] = endpoint: mean survival time, dose: 200.0 mg/kg/injection, schedule: Q01DX009 (ip), vehicle: saline with Tween-80
[6] = endpoint: mean survival time, dose: 100.0 mg/kg/injection, schedule: Q04DX002 (ip), vehicle: saline with Tween-80
[7] = endpoint: mean survival time, dose: 200.0 mg/kg/injection, schedule: Q04DX002 (ip), vehicle: saline with Tween-80
[8] = endpoint: mean survival time, dose: 400.0 mg/kg/injection, schedule: Q04DX002 (ip), vehicle: saline with Tween-80

Measured: T/C

CN(C)c1ccc(C(O)c2ccc(N(C)C)cc2)cc1
inactive: [1] 90 % of control | [2] 91 % of control | [3] 94 % of control

O=C1C=C(c2ccccc2)C2(c3ccccc3)C1C1C(c3ccccc3)=C(c3ccccc3)C2C1(O)c1ccc2ccccc2c1 (stereo not drawn)
inactive: [4] 89 % of control | [5] 92 % of control | endpoint: mean survival time, dose: 400.0 mg/kg/injection, schedule: Q01DX009 (ip), vehicle: saline with Tween-80 92 % of control

N#CC(/C=C/c1ccccc1)Nc1ccccc1O (stereo not drawn)
inactive: [4] 93 % of control

CS(=O)(=O)OCCNc1ccc([N+](=O)[O-])cc1
inactive: endpoint: mean survival time, dose: 8.0 mg/kg/injection, schedule: Q01DX001 (ip), vehicle: saline 100 % of control | endpoint: mean survival time, dose: 10.0 mg/kg/injection, schedule: Q01DX010 (ip), vehicle: saline 103 % of control | endpoint: mean survival time, dose: 16.0 mg/kg/injection, schedule: Q01DX001 (ip), vehicle: saline 95 % of control | endpoint: mean survival time, dose: 30.0 mg/kg/injection, schedule: Q01DX010 (ip), vehicle: saline 113 % of control | endpoint: mean survival time, dose: 32.0 mg/kg/injection, schedule: Q01DX001 (ip), vehicle: saline 98 % of control | endpoint: mean survival time, dose: 64.0 mg/kg/injection, schedule: Q01DX001 (ip), vehicle: saline 90 % of control and 100 % of control | endpoint: mean survival time, dose: 100.0 mg/kg/injection, schedule: Q01DX010 (ip), vehicle: saline 119 % of control | endpoint: mean survival time, dose: 128.0 mg/kg/injection, schedule: Q01DX001 (ip), vehicle: saline 96 % of control | endpoint: mean survival time, dose: 256.0 mg/kg/injection, schedule: Q01DX001 (ip), vehicle: saline 96 % of control | endpoint: mean survival time, dose: 300.0 mg/kg/injection, schedule: Q01DX010 (ip), vehicle: saline 97 % of control

c1ccc(CCSCCSCCc2ccccn2)nc1
inactive: endpoint: mean survival time, dose: 50.0 mg/kg/injection, schedule: Q04DX002 (ip), vehicle: saline with Tween-80 101 % of control | [6] 113 % of control | [7] 101 % of control | [8] 93 % of control

CN(C)C(=O)Sc1ccc(S(=O)(=O)F)cc1F
inactive: [6] 91 % of control | [7] 91 % of control

C=C1c2cccc(O)c2C(O)=C2C(=O)[C@]3(O)C(O)=C(C(N)=O)C(=O)[C@@H](N(C)C)[C@@H]3[C@@H](O)[C@H]12
inactive: endpoint: median survival time, dose: 12.5 mg/kg/injection, schedule: Q01DX009 (ip), vehicle: Klucel (hydroxypropylcellulose) (HPC) 96 % of control | endpoint: median survival time, dose: 25.0 mg/kg/injection, schedule: Q01DX009 (ip), vehicle: Klucel (hydroxypropylcellulose) (HPC) 104 % of control | endpoint: median survival time, dose: 50.0 mg/kg/injection, schedule: Q01DX009 (ip), vehicle: Klucel (hydroxypropylcellulose) (HPC) 107 % of control | endpoint: median survival time, dose: 100.0 mg/kg/injection, schedule: Q01DX009 (ip), vehicle: Klucel (hydroxypropylcellulose) (HPC) 114 % of control

CCOC(=O)/C=C/CP(=O)(OCC)OCC
inactive: endpoint: mean survival time, dose: 50.0 mg/kg/injection, schedule: Q01DX001 (ip), vehicle: carboxymethylcellulose (CMC) 102 % of control

O=S(=O)(N=N/C=C1\C=CC=CN1O)c1cccs1
inactive: endpoint: mean survival time, dose: 12.5 mg/kg/injection, schedule: Q01DX009 (ip), vehicle: saline with Tween-80 95 % of control | endpoint: mean survival time, dose: 25.0 mg/kg/injection, schedule: Q01DX009 (ip), vehicle: saline with Tween-80 101 % of control | endpoint: mean survival time, dose: 50.0 mg/kg/injection, schedule: Q01DX009 (ip), vehicle: saline with Tween-80 103 % of control | [4] 109 % of control | [5] 104 % of control

CC[N+](CC)=C1SCCCS1
inactive: endpoint: mean survival time, dose: 6.25 mg/kg/injection, schedule: Q04DX003 (ip), vehicle: saline 100 % of control | endpoint: mean survival time, dose: 12.5 mg/kg/injection, schedule: Q04DX003 (ip), vehicle: saline 100 % of control | endpoint: mean survival time, dose: 25.0 mg/kg/injection, schedule: Q04DX003 (ip), vehicle: saline 100 % of control

CCOC(=O)c1cc(-c2ccc3ccccc3n2)c(O)c2cc3ccccc3nc12
inactive: [1] 93 % of control | [2] 87 % of control | [3] 90 % of control

N#C/C(=C\C1CCCCC1Cl)C1CCC([N+](=O)[O-])CC1 (stereo not drawn)
inactive: [6] 91 % of control | [8] 87 % of control

O=C(Nc1cccc(F)c1)c1ccco1
inactive: endpoint: mean survival time, dose: 100.0 mg/kg/injection, schedule: Q04DX003 (ip), vehicle: Klucel (hydroxypropylcellulose) (HPC) 94 % of control | endpoint: mean survival time, dose: 200.0 mg/kg/injection, schedule: Q04DX003 (ip), vehicle: Klucel (hydroxypropylcellulose) (HPC) 88 % of control | endpoint: mean survival time, dose: 400.0 mg/kg/injection, schedule: Q04DX003 (ip), vehicle: Klucel (hydroxypropylcellulose) (HPC) 91 % of control

Clc1cc2n[nH]nc2c(Cl)n1
inactive: endpoint: mean survival time, dose: 25.0 mg/kg/injection, schedule: Q01DX009 (ip), vehicle: water 90 % of control | endpoint: mean survival time, dose: 50.0 mg/kg/injection, schedule: Q01DX009 (ip), vehicle: water 90 % of control | endpoint: mean survival time, dose: 100.0 mg/kg/injection, schedule: Q01DX009 (ip), vehicle: water 90 % of control

CSc1nc(N)c2c(ncn2C2OC(CO)C(O)C2O)n1 (stereo not drawn)
inactive: endpoint: mean survival time, dose: 100.0 mg/kg/injection, schedule: Q01DX001 (ip), vehicle: saline 105 % of control | endpoint: mean survival time, dose: 200.0 mg/kg/injection, schedule: Q01DX001 (ip), vehicle: saline 100 % of control | endpoint: mean survival time, dose: 400.0 mg/kg/injection, schedule: Q01DX001 (ip), vehicle: saline 97 % of control

O=C(CCCN1CCC2(CC1)CNC(=O)N2c1ccccc1)c1ccc(F)cc1
inactive: endpoint: mean survival time, dose: 100.0 mg/kg/injection, schedule: Q01DX001 (ip), vehicle: saline with Tween-80 101 % of control | endpoint: mean survival time, dose: 200.0 mg/kg/injection, schedule: Q01DX001 (ip), vehicle: saline with Tween-80 98 % of control | endpoint: mean survival time, dose: 400.0 mg/kg/injection, schedule: Q01DX001 (ip), vehicle: saline with Tween-80 91 % of control
